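Values below derive from 48-hour exposures of cells grown in 96-well plates, with endpoints linearly interpolated between the two concentrations bracketing the appropriate inhibition level. GI50 is the concentration that inhibits growth by half. TGI marks complete inhibition of growth.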
Experiments:
Assay in all cases: NCI tumour cell line growth inhibition, 48 h; in the data active means GI50 below about 0.43 µM; inactive means the rest
SF-295 CNS = tested on: SF-295 CNS
SK-MEL-5 melanoma = tested on: SK-MEL-5 melanoma
HCC-2998 colon = tested on: HCC-2998 colon
SW-620 colon = tested on: SW-620 colon
NCI-H460 lung = tested on: NCI-H460 lung
HS 578T breast = tested on: HS 578T breast
CAKI-1 renal = tested on: CAKI-1 renal
SK-OV-3 ovarian = tested on: SK-OV-3 ovarian
MOLT-4 leukemia = tested on: MOLT-4 leukemia
SF-539 CNS = tested on: SF-539 CNS
SN12C renal = tested on: SN12C renal
NCI-H522 lung = tested on: NCI-H522 lung
786-0 renal = tested on: 786-0 renal
TK-10 renal = tested on: TK-10 renal
HCT-116 colon = tested on: HCT-116 colon
MALME-3M melanoma = tested on: MALME-3M melanoma
SF-268 CNS = tested on: SF-268 CNS
CCRF-CEM leukemia = tested on: CCRF-CEM leukemia
OVCAR-5 ovarian = tested on: OVCAR-5 ovarian
RPMI-8226 leukemia = tested on: RPMI-8226 leukemia
MDA-MB-231 breast = tested on: MDA-MB-231 breast
NCI/ADR-RES ovarian = tested on: NCI/ADR-RES ovarian
NCI-H226 lung = tested on: NCI-H226 lung
T-47D breast = tested on: T-47D breast
HT29 colon = tested on: HT29 colon
HOP-92 NSCLC = tested on: HOP-92 NSCLC
OVCAR-8 ovarian = tested on: OVCAR-8 ovarian
SNB-75 CNS = tested on: SNB-75 CNS
RXF 393 renal = tested on: RXF 393 renal
UO-31 renal = tested on: UO-31 renal
HCT-15 colon = tested on: HCT-15 colon
A549 NSCLC = tested on: A549 NSCLC
OVCAR-3 ovarian = tested on: OVCAR-3 ovarian
SNB-19 CNS = tested on: SNB-19 CNS
SK-MEL-2 melanoma = tested on: SK-MEL-2 melanoma
A498 renal = tested on: A498 renal
ACHN renal = tested on: ACHN renal
M14 melanoma = tested on: M14 melanoma
MCF7 breast = tested on: MCF7 breast
DU-145 prostate = tested on: DU-145 prostate
KM12 colon = tested on: KM12 colon
HL-60(TB) leukemia = tested on: HL-60(TB) leukemia
UACC-257 melanoma = tested on: UACC-257 melanoma
U251 CNS = tested on: U251 CNS
HOP-62 NSCLC = tested on: HOP-62 NSCLC
MDA-MB-435 = tested on: MDA-MB-435
SK-MEL-28 melanoma = tested on: SK-MEL-28 melanoma
LOX IMVI melanoma = tested on: LOX IMVI melanoma
K-562 leukemia = tested on: K-562 leukemia
IGROV1 ovarian = tested on: IGROV1 ovarian
UACC-62 melanoma = tested on: UACC-62 melanoma
EKVX NSCLC = tested on: EKVX NSCLC
PC-3 prostate = tested on: PC-3 prostate
NCI-H23 lung = tested on: NCI-H23 lung
COLO 205 colon = tested on: COLO 205 colon
OVCAR-4 ovarian = tested on: OVCAR-4 ovarian
BT-549 breast = tested on: BT-549 breast
SR leukemia = tested on: SR leukemia

O=C(c1ccc2ccccc2c1)c1nc2cc(F)ccc2[n+]([O-])c1C(F)(F)F
67.6 µM: TGI (SK-MEL-5 melanoma)
37.9 µM: TGI (SF-295 CNS)
24.9 µM: TGI (HL-60(TB) leukemia)
37 µM: TGI (SW-620 colon)
34.1 µM: TGI (SK-OV-3 ovarian)
53.4 µM: TGI (PC-3 prostate)
36.5 µM: TGI (HOP-92 NSCLC)
26.9 µM: TGI (LOX IMVI melanoma)
38.1 µM: TGI (SF-268 CNS) | TGI (COLO 205 colon)
32.4 µM: TGI (OVCAR-8 ovarian)
42.8 µM: TGI (NCI/ADR-RES ovarian)
inactive: GI50 (SF-295 CNS) 18.3 µM | GI50 (SK-MEL-5 melanoma) 24.9 µM | GI50 (HCC-2998 colon) 15.8 µM | GI50 (SW-620 colon) 17.3 µM | GI50 (NCI-H460 lung) 18.8 µM | GI50 (HS 578T breast) 21.9 µM | GI50 (CAKI-1 renal) 4.29 µM | GI50 (SK-OV-3 ovarian) 19.4 µM | GI50 (MOLT-4 leukemia) 22.9 µM | GI50 (SF-539 CNS) 22 µM | GI50 (SN12C renal) 26.6 µM | GI50 (NCI-H522 lung) 13.6 µM | GI50 (786-0 renal) 31.6 µM | GI50 (TK-10 renal) 28.5 µM | GI50 (HCT-116 colon) 18.4 µM | GI50 (MALME-3M melanoma) 17.3 µM | GI50 (SF-268 CNS) 18.5 µM | GI50 (CCRF-CEM leukemia) 22.5 µM | GI50 (OVCAR-5 ovarian) 23.1 µM | GI50 (RPMI-8226 leukemia) 20.1 µM | GI50 (MDA-MB-231 breast) 18.8 µM | GI50 (NCI/ADR-RES ovarian) 21.2 µM | GI50 (NCI-H226 lung) 22.2 µM | GI50 (T-47D breast) 27.6 µM | GI50 (HT29 colon) 16.3 µM | GI50 (HOP-92 NSCLC) 19.5 µM | GI50 (OVCAR-8 ovarian) 16.7 µM | GI50 (SNB-75 CNS) 17 µM | GI50 (RXF 393 renal) 14.6 µM | GI50 (UO-31 renal) 9.42 µM | GI50 (HCT-15 colon) 13 µM | GI50 (A549 NSCLC) 20.6 µM | GI50 (OVCAR-3 ovarian) 16.3 µM | GI50 (SNB-19 CNS) 19.4 µM | GI50 (SK-MEL-2 melanoma) 18.7 µM | GI50 (A498 renal) 43.7 µM | GI50 (ACHN renal) 22.5 µM | GI50 (M14 melanoma) 17.8 µM | GI50 (MCF7 breast) 35.6 µM | GI50 (DU-145 prostate) 20.9 µM | GI50 (KM12 colon) 19 µM | GI50 (HL-60(TB) leukemia) 6.68 µM | GI50 (UACC-257 melanoma) 17.4 µM | GI50 (U251 CNS) 18.1 µM | GI50 (HOP-62 NSCLC) 34.4 µM | GI50 (MDA-MB-435) 15.2 µM | GI50 (SK-MEL-28 melanoma) 15.9 µM | GI50 (LOX IMVI melanoma) 13.8 µM | GI50 (K-562 leukemia) 2800 nM | GI50 (IGROV1 ovarian) 8.36 µM | GI50 (UACC-62 melanoma) 17 µM | GI50 (EKVX NSCLC) 18.2 µM | GI50 (PC-3 prostate) 20.1 µM | GI50 (NCI-H23 lung) 13 µM | GI50 (COLO 205 colon) 15.9 µM | GI50 (OVCAR-4 ovarian) 18.7 µM | GI50 (BT-549 breast) 17.5 µM
36.8 µM: TGI (OVCAR-4 ovarian)
35.3 µM: TGI (UACC-257 melanoma)
29.1 µM: TGI (NCI-H23 lung)
29.8 µM: TGI (NCI-H522 lung)
35.2 µM: TGI (HT29 colon)
92.2 µM: TGI (TK-10 renal)
33 µM: TGI (BT-549 breast)
60 µM: TGI (ACHN renal)
38 µM: TGI (NCI-H460 lung) | TGI (MDA-MB-231 breast) | TGI (EKVX NSCLC)
32.6 µM: TGI (UACC-62 melanoma)
35.9 µM: TGI (SNB-75 CNS)
53.8 µM: TGI (MOLT-4 leukemia)
37.8 µM: TGI (SNB-19 CNS)
15.4 µM: TGI (K-562 leukemia)
31.3 µM: TGI (HCC-2998 colon)
33.1 µM: TGI (HCT-116 colon)
53.7 µM: TGI (RPMI-8226 leukemia) | TGI (A549 NSCLC)
33.9 µM: TGI (U251 CNS)
46.5 µM: TGI (NCI-H226 lung)
17.6 µM: TGI (CAKI-1 renal)
56.9 µM: TGI (HS 578T breast)
48.8 µM: TGI (UO-31 renal)
27.8 µM: TGI (HCT-15 colon)
48.9 µM: TGI (SF-539 CNS) | TGI (OVCAR-5 ovarian)
39.4 µM: TGI (KM12 colon)
35.8 µM: TGI (SK-MEL-2 melanoma)
34 µM: TGI (M14 melanoma)
30.8 µM: TGI (RXF 393 renal)
28.6 µM: TGI (MDA-MB-435)
30.3 µM: TGI (SK-MEL-28 melanoma)
32.9 µM: TGI (MALME-3M melanoma)
45.8 µM: TGI (DU-145 prostate)
66.3 µM: TGI (CCRF-CEM leukemia)
29.9 µM: TGI (OVCAR-3 ovarian)
> 100 µM: TGI (786-0 renal) | TGI (T-47D breast) | TGI (A498 renal) | TGI (MCF7 breast) | TGI (HOP-62 NSCLC)
21.6 µM: TGI (IGROV1 ovarian)
71.4 µM: TGI (SN12C renal)

Nc1nc2ccc(Sc3ccc4nc(N)[nH]c(=O)c4c3)cc2c(=O)[nH]1
81.9 µM: TGI (NCI-H226 lung)
> 100 µM: TGI (SF-295 CNS) | TGI (SK-MEL-5 melanoma) | TGI (HCC-2998 colon) | TGI (SW-620 colon) | TGI (NCI-H460 lung) | TGI (HS 578T breast) | TGI (CAKI-1 renal) | TGI (SK-OV-3 ovarian) | TGI (MOLT-4 leukemia) | TGI (SF-539 CNS) | TGI (SN12C renal) | TGI (NCI-H522 lung) | TGI (786-0 renal) | TGI (TK-10 renal) | TGI (HCT-116 colon) | TGI (MALME-3M melanoma) | TGI (SF-268 CNS) | TGI (CCRF-CEM leukemia) | TGI (OVCAR-5 ovarian) | TGI (RPMI-8226 leukemia) | TGI (MDA-MB-231 breast) | TGI (NCI/ADR-RES ovarian) | TGI (T-47D breast) | TGI (HT29 colon) | TGI (HOP-92 NSCLC) | TGI (OVCAR-8 ovarian) | TGI (SNB-75 CNS) | TGI (RXF 393 renal) | TGI (UO-31 renal) | TGI (HCT-15 colon) | TGI (A549 NSCLC) | TGI (OVCAR-3 ovarian) | TGI (SNB-19 CNS) | TGI (SK-MEL-2 melanoma) | TGI (SR leukemia) | TGI (ACHN renal) | TGI (M14 melanoma) | TGI (MCF7 breast) | TGI (DU-145 prostate) | TGI (KM12 colon) | TGI (HL-60(TB) leukemia) | TGI (UACC-257 melanoma) | TGI (U251 CNS) | TGI (MDA-MB-435) | TGI (SK-MEL-28 melanoma) | TGI (K-562 leukemia) | TGI (IGROV1 ovarian) | TGI (UACC-62 melanoma) | TGI (EKVX NSCLC) | TGI (PC-3 prostate) | TGI (NCI-H23 lung) | TGI (COLO 205 colon) | TGI (OVCAR-4 ovarian) | TGI (BT-549 breast)
